The values that follow come from US9499493B2, “2,4-pyrimidinediamine compounds and their uses” (Rigel Pharmaceuticals, Inc., priority 2002, dated 2016).

Where only a bound is given, the exact number is not on record here.

What all share (assay type): cell-based
Test [1] deals with cultured human mast cells (CHMC). The test can be described thus: CHMC low cell density IgE activation: tryptase assay. The conditions noted are these: anti-IgE. In outline: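 Cells pelleted, taken up in warm MT, plated at 1000-1500/well, held 1 hr 37° C. Anti-IgE added, 30 min 37° C. Plates spun; supernatant mixed with tryptase substrate, 30 min RT.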
For test [2] the test system is unchanged. The test can be described thus: CHMC low cell density ionomycin activation: tryptase assay.
The test system is the same in test [3]. The test can be described thus: CHMC high cell density IgE activation: hexos (hexosaminidase) release. The conditions noted are these: anti-IgE activation. Here is the method: (§1) Inhibition of degranulation was measured at both low and high cell density by quantifying the release of the granule specific factors tryptase, histamine and hexosaminidase. Inhibition of release and/or synthesis of lipid mediators was assessed by measuring the release of leukotriene LTC4 and inhibition of release and/or synthesis of cytokines was monitored by quantifying TNF-α, IL-6 and IL-13. Tryptase and hexosaminidase were quantified using fluorogenic substrates as described in their respective examples. […] The protocols of the various assays are provided below.
(§2) After sensitizing, cells are counted, pelleted (1000 rpm, 5-10 minutes), and resuspended at 1-2×10^6 cells/ml in MT buffer. Add 100 ul of cell suspension to each well and 100 ul of compound dilutions. The final vehicle concentration is 0.5% DMSO. Incubate at 37° C. (5% CO2) for 1 hour. After 1 hour of compound treatment, stimulate cells with 6× anti-IgE. Mix wells with the cells and allow plates to incubate at 37° C. (5% CO2) for one hour. After 1 hour incubation, pellet cells (10 minutes, 1000 RPM) and collect 200 ul per well of the supernatant, being careful not to disturb pellet. Place the supernatant plate on ice. During the 7-hour step (see next) perform tryptase assay on supernatant that had been diluted 1:500. Resuspend cell pellet in 240 ul of CM media containing 0.5% DMSO and corresponding concentration of compound. Incubate CHMC cells for 7 hours at 37° C. (5% CO2). After incubation, pellet cells (1000 RPM, 10 minutes) and collect 225 ul per well and place in −80° C. until ready to perform ELISAS. ELISAS are performed on appropriately diluted samples (determined empirically for each donor cell population so that the sample measurement falls within the standard curve) following the supplier's instructions.

For test [4] the test system is unchanged. The test can be described thus: CHMC high cell density IgE activation: tryptase. The note with it: anti-IgE activation. As to the method: as §2
Test [5] shares this test system. Briefly: CHMC high cell density IgE activation: histamine. The conditions noted are these: anti-IgE activation. Here is the method:
as §1, §2

Test [6] shares this test system. Briefly: CHMC high cell density IgE activation: TNFalpha. The note with it: anti-IgE activation; read-out: CHMC high density TNF-alpha. Here is the method: as §1, §2
For test [7] the test system is unchanged. The test can be described thus: CHMC high cell density IgE activation: IL-13. The note with it: anti-IgE activation. Here is the method: as §1, §2
Test [8] shares this test system. Briefly: CHMC low cell density IgE activation: LTC4 assay. The conditions noted are these: anti-IgE. As to the method:
Pellet CHMC cells (980 rpm, 10 min) and resuspend in pre-warmed MT. Add 65 ul of cells to each 96-well plate. Depending on the degranulation activity for each particular CHMC donor, load 1000-1500 cells/well. Mix four times followed by a 1 hr incubation at 37° C. […] Stimulate cells by adding 25 ul of 6× anti-IgE solution to the appropriate plates. Add 25 ul MT to un-stimulated control wells. Mix twice following addition of the anti-IgE. Incubate at 37° C. for 30 minutes. […] Spin plates at 1000 rpm for 10 min to pellet cells. Transfer 25 ul of supernatant to a 96-well black bottom plate and add 100 ul of freshly diluted tryptase substrate solution to each well. Incubate plates at room temperature for 30 min.
Leukotriene C4 (LTC4) is also quantified using an ELISA kit on appropriately diluted supernatant samples (determined empirically for each donor cell population so that the sample measurement falls within the standard curve) following the supplier's instructions.

In a further test the test system is Jurkat cells. Briefly: Jurkat (T-cell) toxicity, light scatter. The note with it: 18-24 hr incubation; read-out: Toxicity Jurkat Light Scat. As to the method: Dilute Jurkat cells to 2×10^5 cells/ml in complete RPMI (10% heat-inactivated fetal bovine serum) media and incubate at 37° C., 5% CO2 for 18 hours. Add 65 ul cells at 7.7×10^5 cells/ml to a 96-well V-bottom plate (TC-treated, Costar) containing 65 ul 2× compound (final vehicle concentration is 0.5% DMSO, 1.5% MeOH). Mix, incubate plates for 18-24 hr at 37° C., 5% CO2. Toxicity was assessed by flow cytometric analysis of cellular light scatter

Another test deals with B-cell line BJAB. Briefly: BJAB (B-cell) toxicity, light scatter. The note with it: read-out: Toxicity BJAB Light Scat. Here is the method:
The B-cell line BJAB was cultured in log phase in RPMI1640+10% heat-inactivated fetal bovine serum, 1× L-glutamine, 1× penicillin, 1× […] and 1× beta-mercaptoethanol at 37° C., 5% CO2. First, BJABs were harvested, spun and resuspended in culture medium to a concentration of 7.7×10^5 cells/mL. 65 uL cells were mixed with 65 uL compound, in duplicate and in the presence of 0.1% DMSO in a V-bottomed 96-well tissue culture plate. Cells were incubated with compound at various dilutions at 37° C., 5% CO2. Toxicity was assessed by flow cytometric analysis of cellular light scatter.

The subject of test [9] is cultured human mast cells (CHMC). Briefly: CHMC high cell density IgE activation: LTC4. The conditions noted are these: anti-IgE activation. As to the method: as §1, §2

Take `Cc1cc(Nc2nc(Nc3cccc(OCC(=O)N4CCNCC4)c3)ncc2F)cc(C)c1O` [R945140, N4-(3,5-Dimethyl-4-hydroxyphenyl)-5-fluoro-N2-[3-(N-piperazino)carbonylmethyleneoxyphenyl]-2,4-pyrimidinediamine]: the IC50 in test [1] is 573 nM; in test [2] it was above 10 µM; in [3] it was 994 nM; in test [4] it was 1110 nM; in [5], 1550 nM; in test [6] it was 1710 nM. Besides, in test [7], the IC50 was above 10000 nM.
On to `COC(=O)COc1ccc(Nc2ncc(F)c(Nc3ccc(OCC(=O)OC)cc3)n2)cc1` [R926240, N2,N4-Bis[(4-methoxycarbonylmethyleneoxy)phenyl]-5-fluoro-2,4-pyrimidinediamine], for which the IC50 was 381 nM in [1]; 145 nM in [8]; 1.7 µM in test [2]; 10 µM in the test on Jurkat cells; above 10 µM with B-cell line BJAB.
Regarding `Fc1cnc(Nc2ccc(OCc3nnn[nH]3)cc2)nc1Nc1ccc(OCc2nnn[nH]2)cc1` [R945033, N2,N4-Bis[4-(1H-1,2,3,4-tetrazol-5-yl)methyleneoxyphenyl]-5-fluoro-2,4-pyrimidinediamine], the IC50 in test [1] was above 10000 nM; in test [2], above 10 µM; in [3], 8150 nM; in test [4], 8870 nM; in [5] it was above 10000 nM; in test [9], 5980 nM.
With `CCOC(=O)c1cnc(Nc2ccc(OCC(=O)OC)cc2)nc1Nc1ccc(OCC(=O)OC)cc1` [R926253, N2,N4-Bis(4-methoxycarbonylmethyleneoxyphenyl)-5-ethoxycarbonyl-2,4-pyrimidinediamine], the IC50 in test [1] is 800 nM; in [8], 675 nM; in the test on Jurkat cells it was above 10 µM; in the test on B-cell line BJAB, above 10 µM.
For the compound `Oc1cccc(Nc2nc(Nc3ccc(OCCN4CCOCC4)cc3)ncc2F)c1` [R926699, 5-Fluoro-N4-(3-hydroxyphenyl)-N2-[4-[2-(N-morpholino)ethyleneoxy]phenyl]-2,4-pyrimidinediamine], the IC50 in [1] was 760 nM; in [2] it was above 10 µM; in [3], below 1100 nM; in [4] it was below 1100 nM; in test [5], 1440 nM; in test [9], below 1100 nM. The IC50 was below 1100 nM in [6] and 1290 nM in [7].
On to `CCOC(=O)COc1ccc(Nc2ncc(C#N)c(Nc3ccc(OCC(=O)OCC)cc3)n2)cc1` [R925775, N2,N4-Bis[4-(ethoxycarbonylmethyleneoxy)phenyl]-5-cyano-2,4-pyrimidinediamine], for which the IC50 (in [2]; with Jurkat cells; in the test with B-cell line BJAB) was above 10 µM throughout.
As to `COC(=O)COc1ccc(Nc2ncc(C)c(Nc3ccc(OCC(=O)OC)cc3)n2)cc1` [R926258, N2,N4-Bis(4-methoxycarbonylmethyleneoxyphenyl)-5-methyl-2,4-pyrimidinediamine], the IC50 was 900 nM in [1]; 590 nM in test [8]; above 10 µM in test [2]; above 10 µM with Jurkat cells; above 10 µM with B-cell line BJAB.
As to `COC(=O)c1cc2cc(Nc3ncc(F)c(Nc4ccc5[nH]c(C(=O)OC)cc5c4)n3)ccc2[nH]1` [R926593], the IC50 in test [1] (Homo sapiens, Mast cell) came out at 680 nM; in [8] (Homo sapiens, Mast cell), 495 nM; in [2] (Homo sapiens, Mast cell) it was 8.3 µM.
For the compound `N#CCOc1ccc(Nc2ncc(F)c(Nc3ccc(OCC#N)cc3)n2)cc1` [R945032, N2,N4-Bis[4-(cyanomethyleneoxy)phenyl]-5-fluoro-2,4-pyrimidinediamine], the IC50 was 370 nM in test [1]; above 10 µM in test [2]; 357 nM in test [3]; 458 nM in [4]; 439 nM in [5]; 92.9 nM in test [9]. Moreover, the IC50 in test [6] is 1080 nM; in test [7], 291 nM.
Take `COC(=O)COc1ccc(Nc2ccnc(Nc3ccc(OCC(=O)OC)cc3)n2)cc1` [R926256, N2,N4-Bis[(4-methoxycarbonylmethyleneoxy)phenyl]-2,4-pyrimidinediamine]: the IC50 in test [1] was 275 nM; in test [8], 230 nM; in test [2] it was 5.1 µM; in the test with Jurkat cells, above 10 µM; in the test on B-cell line BJAB, above 10 µM.
With `CCOC(=O)COc1ccc(Nc2ncc(Br)c(Nc3ccc(OCC(=O)OCC)cc3)n2)cc1` [R925779, N2,N4-Bis[4-(ethoxycarbonylmethyleneoxy)phenyl]-5-bromo-2,4-pyrimidinediamine], the IC50 in [1] was 265 nM; in test [8], 190 nM; in [2] it was above 10 µM; with Jurkat cells, above 10 µM; in the test with B-cell line BJAB, above 10 µM.
For `CCOC(=O)COc1ccc(Nc2ncc(Br)c(Nc3cccc(O)c3)n2)cc1` [R926396, 5-Bromo-N2-(4-ethoxycarbonylmethyleneoxyphenyl)-N4-(3-hydroxyphenyl)-2,4-pyrimidinediamine], the IC50 in [1] is 700 nM; in [8], 160 nM; in test [2], 2.6 µM; with Jurkat cells, above 10 µM; in the test with B-cell line BJAB, above 10 µM.
Take `N#CCOc1ccc(Nc2nc(Nc3cccc(O)c3)ncc2F)cc1` [R945071, N4-[4-(Cyanomethyleneoxy)phenyl]-5-fluoro-N2-(3-hydroxyphenyl)-2,4-pyrimidinediamine]: the IC50 in test [3], in [4], in test [5], in test [9], in test [6] and in [7] was below 1100 nM each time.
Consider `CCOC(=O)COc1ccc(Nc2ncc(F)c(Nc3cccc(O)c3)n2)cc1` [R926395, N2-(4-Ethoxycarbonylmethyleneoxyphenyl)-5-fluoro-N4-(3-hydroxyphenyl)-2,4-pyrimidinediamine], for which the IC50 is 875 nM in test [1]; 290 nM in test [8]; 6.4 µM in test [2]; above 10 µM in the test on Jurkat cells; above 10 µM in the test with B-cell line BJAB.
For `CC(C)Oc1ccc(Nc2nc(Nc3ccc4oc(C(=O)N5CCCC5)cc4c3)ncc2F)cc1` [R926703, 5-Fluoro-N4-(4-isopropoxyphenyl)-N2-[2-(N-pyrrolidino)carbonylbenzofuran-5-yl]-2,4-pyrimidinediamine], the IC50 in test [1] is 525 nM; in test [2], above 10 µM; in [3], 1510 nM; in test [4], 1950 nM; in test [5] it was above 2000 nM; in test [9] it was 724 nM. Besides, the IC50 in test [6] is above 2000 nM.
For the compound `COC(=O)COc1ccc(Nc2cc(Cl)nc(Nc3ccc(OCC(=O)OC)cc3)n2)cc1` [R926411, N2,N4-Bis(4-methoxycarbonylmethyleneoxyphenyl)-6-chloro-2,4-pyrimidinediamine], the IC50 in test [1] is 690 nM; in test [2], 2.5 µM; with Jurkat cells, 8.5 µM; with B-cell line BJAB it was above 10 µM.
